From patent publication US20250353852A1, “COMPOUNDS AND COMPOSITIONS THAT INHIBIT PIKFYVE” (Kineta, Inc., priority 2021, published 2025) come the findings set out here.

Chain of full-length human PIKFYVE (Q9Y2I7 whole entry S696N/L932S/Q995L/T998S/S1033A/Q1183K, the tested form may be a part): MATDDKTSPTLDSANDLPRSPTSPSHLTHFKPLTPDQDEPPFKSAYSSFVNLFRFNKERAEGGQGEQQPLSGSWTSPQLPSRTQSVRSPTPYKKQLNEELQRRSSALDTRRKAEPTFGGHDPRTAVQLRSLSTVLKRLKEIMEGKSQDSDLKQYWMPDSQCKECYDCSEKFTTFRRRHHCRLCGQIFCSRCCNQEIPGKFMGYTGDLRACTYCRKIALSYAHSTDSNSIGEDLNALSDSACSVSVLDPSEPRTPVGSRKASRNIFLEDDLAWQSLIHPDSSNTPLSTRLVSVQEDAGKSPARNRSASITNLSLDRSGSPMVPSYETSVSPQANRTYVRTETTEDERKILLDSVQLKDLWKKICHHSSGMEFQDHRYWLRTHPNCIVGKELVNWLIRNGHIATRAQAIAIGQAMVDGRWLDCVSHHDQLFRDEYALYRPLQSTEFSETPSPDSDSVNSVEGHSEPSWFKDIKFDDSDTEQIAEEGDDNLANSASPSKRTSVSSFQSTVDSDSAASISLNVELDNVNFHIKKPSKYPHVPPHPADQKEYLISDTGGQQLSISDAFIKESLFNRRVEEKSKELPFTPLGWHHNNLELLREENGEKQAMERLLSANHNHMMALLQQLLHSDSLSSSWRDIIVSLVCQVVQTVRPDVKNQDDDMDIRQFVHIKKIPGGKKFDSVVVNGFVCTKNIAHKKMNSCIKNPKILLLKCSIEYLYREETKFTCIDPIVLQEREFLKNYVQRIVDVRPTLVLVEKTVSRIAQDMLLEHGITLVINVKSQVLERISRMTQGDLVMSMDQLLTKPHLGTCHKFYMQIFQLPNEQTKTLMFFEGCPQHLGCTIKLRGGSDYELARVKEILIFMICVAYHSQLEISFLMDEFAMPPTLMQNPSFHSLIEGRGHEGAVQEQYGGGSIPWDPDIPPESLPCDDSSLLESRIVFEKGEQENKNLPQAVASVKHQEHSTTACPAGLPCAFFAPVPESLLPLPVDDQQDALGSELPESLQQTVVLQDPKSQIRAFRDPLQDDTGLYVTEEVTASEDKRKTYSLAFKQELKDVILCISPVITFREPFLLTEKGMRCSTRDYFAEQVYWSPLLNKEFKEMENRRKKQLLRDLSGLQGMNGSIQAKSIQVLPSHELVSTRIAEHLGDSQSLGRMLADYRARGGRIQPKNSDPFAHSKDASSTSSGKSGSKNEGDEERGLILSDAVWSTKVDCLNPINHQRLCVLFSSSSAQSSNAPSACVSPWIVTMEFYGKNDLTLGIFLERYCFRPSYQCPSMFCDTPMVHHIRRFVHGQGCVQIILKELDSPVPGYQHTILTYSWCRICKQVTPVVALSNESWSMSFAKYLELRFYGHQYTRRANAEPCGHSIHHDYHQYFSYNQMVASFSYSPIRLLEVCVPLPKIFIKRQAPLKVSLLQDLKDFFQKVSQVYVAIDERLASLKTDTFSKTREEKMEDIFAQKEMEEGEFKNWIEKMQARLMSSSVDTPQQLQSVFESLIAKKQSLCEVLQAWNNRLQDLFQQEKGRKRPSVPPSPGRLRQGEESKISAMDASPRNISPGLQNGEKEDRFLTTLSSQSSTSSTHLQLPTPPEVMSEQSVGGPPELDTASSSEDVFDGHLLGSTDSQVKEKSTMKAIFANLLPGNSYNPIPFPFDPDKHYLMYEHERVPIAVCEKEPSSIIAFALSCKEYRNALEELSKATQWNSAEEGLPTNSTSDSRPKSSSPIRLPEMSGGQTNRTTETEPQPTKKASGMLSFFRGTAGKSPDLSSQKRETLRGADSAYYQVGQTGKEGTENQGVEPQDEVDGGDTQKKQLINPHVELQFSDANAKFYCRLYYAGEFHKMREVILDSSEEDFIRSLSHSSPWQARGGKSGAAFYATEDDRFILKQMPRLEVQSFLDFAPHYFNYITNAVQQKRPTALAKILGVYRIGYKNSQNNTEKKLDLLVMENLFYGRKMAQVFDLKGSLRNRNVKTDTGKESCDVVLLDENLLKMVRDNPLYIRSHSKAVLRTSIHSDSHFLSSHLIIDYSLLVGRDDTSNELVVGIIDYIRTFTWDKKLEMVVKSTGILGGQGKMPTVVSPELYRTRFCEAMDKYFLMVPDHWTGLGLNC

The experiment deals with full-length human PIKFYVE (Homo sapiens (Human), UniProt Q9Y2I7, L932S/Q1183K/Q995L/S1033A/S696N/T998S). Briefly: PIKfyve biochemical assay (ADP-Glo Kinase assay, Carna Biosciences). To be noted: class symbols. Summed up:
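N-terminal GST-fused full-length PIKFYVE from baculovirus, incubated with compound, substrate and ATP in 50 mM MOPS, 1 mM DTT, pH7.2 for 1 hour at room temperature. ADP formed detected by ADP-Glo luminescence; IC50 from four-parameter logistic fit of % inhibition.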
As usually defined, the IC50 is the concentration needed to halve the response being measured. As for `c1nn(-c2cc(N3CCOCC3)n3nc(C4CCCO4)cc3n2)c2c1COCC2` (centres unmarked) [Compound 100, 1-(7-morpholino-2-(tetrahydrofuran-2-yl)pyrazolo[1,5-a]pyrimidin-5-yl)-1,4,6,7-tetrahydropyrano[4,3-c]pyrazole], the IC50 is more than 10 µM.

For the compound `O=c1c(Br)c(Br)cnn1-c1cc(N2CCOCC2)n2nc(-c3ccncc3)cc2n1` [Compound 4, 4,5-dibromo-2-(7-morpholino-2-(pyridin-4-yl)pyrazolo[1,5-a]pyrimidin-5-yl)pyridazin-3(2H)-one], the IC50 was in the range of 1 to 10 µM.

`c1ccc(C2CN(c3cc(N4CCOCC4)n4nc(-c5ccncc5)cc4n3)CCN2)cc1` (centres unmarked) [Compound 35, 4-(5-(3-phenylpiperazin-1-yl)-2-(pyridin-4-yl)pyrazolo[1,5-a]pyrimidin-7-yl)morpholine] showed an IC50 of 1 to 10 µM.

Compound `Fc1cncc(-c2ccn(-c3cc(N4CCOCC4)n4nc(-c5ccncc5)cc4n3)n2)c1` [Compound 60, 4-(5-(3-(5-fluoropyridin-3-yl)-1H-pyrazol-1-yl)-2-(pyridin-4-yl)pyrazolo[1,5-a]pyrimidin-7-yl)morpholine] showed an IC50 of 0.1 to 1 µM.

For the compound `O=c1c(-c2ccccc2)c(-c2ccccc2)cnn1-c1cc(N2CCOCC2)n2nc(-c3ccncc3)cc2n1` [Compound 6, 2-(7-morpholino-2-(pyridin-4-yl)pyrazolo[1,5-a]pyrimidin-5-yl)-4,5-diphenylpyridazin-3(2H)-one], the half-maximal inhibitory concentration (IC50) is 1 to 10 µM.

The compound `OCC(O)c1cc2nc(-n3ccc(-c4ccccc4)n3)cc(N3CCOCC3)n2n1` (centres unmarked) [Compound 144, 1-(7-morpholino-5-(3-phenyl-1H-pyrazol-1-yl)pyrazolo[1,5-a]pyrimidin-2-yl)ethane-1,2-diol] returned a half-inhibitory concentration (IC50) of 0.01 to 0.1 µM.

Turning to `c1cc(-c2cc3nc(-n4cc5c(n4)CCOC5)cc(N4CCOCC4)n3n2)ccn1` [Compound 89, 2-(7-morpholino-2-(pyridin-4-yl)pyrazolo[1,5-a]pyrimidin-5-yl)-2,4,6,7-tetrahydropyrano[4,3-c]pyrazole], the IC50 lay in the range of 0.1 to 1 µM.

Take `C1=C(c2cn(-c3cc(N4CCOCC4)n4nc(-c5ccncc5)cc4n3)cn2)CNCC1` [Compound 17, 4-(2-(pyridin-4-yl)-5-(4-(1,2,5,6-tetrahydropyridin-3-yl)-1H-imidazol-1-yl)pyrazolo[1,5-a]pyrimidin-7-yl)morpholine]: the half-maximal inhibitory concentration (IC50) fell in the range of 1 to 10 µM.

Compound `c1cc(-c2cc3nc(-n4cc5c(n4)COCC5)cc(N4CCOCC4)n3n2)ccn1` [Compound 87, 2-(7-morpholino-2-(pyridin-4-yl)pyrazolo[1,5-a]pyrimidin-5-yl)-2,4,5,7-tetrahydropyrano[3,4-c]pyrazole] came in with an IC50 of 1 to 10 µM.

For `c1ccc(C2CCN(c3cc(N4CCOCC4)n4nc(-c5ccncc5)cc4n3)C2)cc1` (centres unmarked) [Compound 33, 4-(5-(3-phenylpyrrolidin-1-yl)-2-(pyridin-4-yl)pyrazolo[1,5-a]pyrimidin-7-yl)morpholine], the IC50 was in the range of 1 to 10 µM.

Take `c1ccc(CC2CNCCN2c2cc(N3CCOCC3)n3nc(-c4ccncc4)cc3n2)cc1` (centres unmarked) [Compound 117, 4-(5-(2-benzylpiperazin-1-yl)-2-(pyridin-4-yl)pyrazolo[1,5-a]pyrimidin-7-yl)morpholine]: the IC50 fell in the range of 1 to 10 µM.

Turning to `O=c1ccc(-c2ccccc2)nn1-c1cc(N2CCOCC2)n2nc(-c3ccncc3)cc2n1` [Compound 3, 2-(7-morpholino-2-(pyridin-4-yl)pyrazolo[1,5-a]pyrimidin-5-yl)-6-phenylpyridazin-3(2H)-one], the 50% inhibitory concentration (IC50) was in the range of 0.1 to 1 µM.

As for `O=C1C(c2ccccc2)CCCN1c1cc(N2CCOCC2)n2nc(-c3ccncc3)cc2n1` (centres unmarked) [Compound 24, 1-(7-morpholino-2-(pyridin-4-yl)pyrazolo[1,5-a]pyrimidin-5-yl)-3-phenylpiperidin-2-one], the IC50 was in the range of 1 to 10 µM.

For the compound `c1cc(-c2cc3nc(-n4ccc(C5CNC5)n4)cc(N4CCOCC4)n3n2)ccn1` [Compound 73, 4-(5-(3-(Azetidin-3-yl)-1H-pyrazol-1-yl)-2-(pyridin-4-yl)pyrazolo[1,5-a]pyrimidin-7-yl)morpholine], the 50% inhibitory concentration (IC50) lay within 0.1 to 1 µM.
